According to patent US11058691B2, “Nitric oxide releasing prostaglandin derivatives for treating normal tension glaucoma” (BAUSCH & LOMB INCORPORATED, priority 2016, dated 2021):
Entries after “also recorded” stand apart in the source; their conditions may differ. Structures can show the parent of a compound that is named as a salt.

Columns and labels:
[1] = Post hoc analysis of two Phase 3 clinical studies: IOP lowering in fellow eyes with baseline IOP ≤21 mm Hg; format: in vivo, human; settings: for IOP lowering: fellow eyes with normal IOP at baseline (≤21 mm Hg mean diurnal)
Text: The findings reported below derive from a post hoc analysis of the results of two multicenter, double-masked, parallel-group Phase 3 clinical studies that evaluated the intraocular pressure (IOP) lowering effect of a 0.024% solution of Compound (1) dissolved in vehicle in subjects with open-angle glaucoma or ocular hypertension.
Subjects≥18 years instilled one drop of a 0.024% solution of Compound (1) once daily in the evening and vehicle in the morning or timolol maleate 0.5% twice daily for 3 months (active controlled efficacy phase). Thereafter all subjects instilled Compound (1) for a further 9 months in the first study or 3 months in the second study (open-label safety extension phase).
Intraocular pressure (IOP) was measured at 8 AM, 12 PM, and 4 PM at all visits including baseline, week 2, week 6, month 3, month 6 (both studies) and months 9 and 12 (first study only).
Non-study (i.e. fellow) eyes with normal IOP at baseline treated with Compound (1) 0.024% once a day in the evening (n=50; treatment for up to 12 months) or with timolol maleate 0.5% twice a day (n=17; treatment for 3 months) were identified, and IOP outcomes were summarized using descriptive statistics and two-sided, 95% confidence intervals (CI) for the means.
Normal IOP was defined as ≤21 mm Hg (mean diurnal; average of 8 AM, 12 PM and 4 PM measurements) in the primarily Caucasian population.

[2] = Post hoc analysis of a single-arm open-label Phase 3 clinical study in Japanese subjects: IOP lowering in eyes with baseline IOP ≤19 mm Hg; format: in vivo, human; settings: Japanese population, baseline IOP ≤19 mm Hg (10 AM); 0.024% solution once daily in the evening; over the 12 months study period
Text: The findings reported below derive from a post hoc analysis of the results of a single-arm, multicenter, open-label Phase 3 clinical study that evaluated the IOP lowering effect of a 0.024% solution of Compound (1) dissolved in vehicle in Japanese subjects with open-angle glaucoma (including normal-tension glaucoma, pigmentary glaucoma, or pseudoexfoliative glaucoma) or ocular hypertension.
Subjects≥20 years instilled one drop of a 0.024% solution of Compound (1) once daily in the evening for 12 months. Intraocular pressure was measured at 10 AM at baseline, and every 4 weeks thereafter for a total of 13 visits. Study and non-study (i.e. fellow) eyes with normal IOP at baseline treated with Compound (1) 0.024% once a day in the evening (n=66 and n=79 for treated study and treated fellow eyes respectively) were identified, and IOP outcomes were summarized using descriptive statistics and two-sided, 95% confidence intervals (CI) for the means.
Normal IOP was defined as ≤19 mm Hg (mean IOP measured at 10 AM) in the Japanese population, since Asian populations typically have lower IOP than non-Asian populations.

[3] = 3 month efficacy phase, Compound (1) 0.024% once daily in the evening, timolol maleate 0.5% twice daily

Row | SMILES | IOP lowering effectiveness (in words) ([1]; eyes with IOP in the normal range (baseline ≤21 mm Hg), 0.024% QD in the evening) | IOP lowering ([1]; 0.024% solution once daily in the evening, over the 12 months study period) | IOP lowering [1, 3] | IOP lowering in the study eye [2] | IOP lowering in the treated fellow eye [2]
1 | O=C(CCC/C=C\C[C@@H]1[C@@H](CC[C@@H](O)CCc2ccccc2)[C@H](O)C[C@@H]1O)OCCCCO[N+](=O)[O-] (relative stereo) [Compound (1), [1R-[1α(Z), 2α(R*), 3α, 5α]]-7-[3,5-dihydroxy-2-(3-hydroxy-5-phenylpentyl)cyclopentyl]-5-heptenoic acid 4-(nitrooxy)butyl ester] | appears to be more effective than timolol maleate; also recorded: effective for IOP lowering in eyes with IOP in the normal range | 4.2-4.9 mm Hg | 4.6-4.9 mm Hg | 3.4-4.2 mm Hg | 3.2-3.9 mm Hg
2 | CC(C)(C)NC[C@H](O)COc1nsnc1N1CCOCC1 [timolol maleate, reference compound] |  |  | 3.6-4.5 mm Hg |  | 
